Experimental data: US9273057B2 (Bristol-Myers Squibb Company, priority 2012, dated 2016)

Target: CK2A1 (CK2α/β) (Homo sapiens, UniProt P68400)
Assay: CK2 kinase assay, CK2A1 (CK2α/β)
Format: biochemical
Conditions: Table A; read-out: CK2A1 (CK2α/β) (IC50)

CK2A1 (CK2α/β), sequence (P68400 whole entry, species assumed): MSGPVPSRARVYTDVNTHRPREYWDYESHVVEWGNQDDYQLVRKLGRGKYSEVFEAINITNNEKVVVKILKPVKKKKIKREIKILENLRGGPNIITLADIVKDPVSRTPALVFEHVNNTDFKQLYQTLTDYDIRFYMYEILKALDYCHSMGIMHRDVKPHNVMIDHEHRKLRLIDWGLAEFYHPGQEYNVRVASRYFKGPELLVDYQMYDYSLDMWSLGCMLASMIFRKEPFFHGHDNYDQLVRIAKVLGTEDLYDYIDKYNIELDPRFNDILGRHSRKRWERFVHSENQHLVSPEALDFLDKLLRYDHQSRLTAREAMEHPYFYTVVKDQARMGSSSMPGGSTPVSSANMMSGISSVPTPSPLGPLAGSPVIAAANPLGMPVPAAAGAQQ
CK2A1 (CK2α/β), sequence (P67870 whole entry partner, species assumed): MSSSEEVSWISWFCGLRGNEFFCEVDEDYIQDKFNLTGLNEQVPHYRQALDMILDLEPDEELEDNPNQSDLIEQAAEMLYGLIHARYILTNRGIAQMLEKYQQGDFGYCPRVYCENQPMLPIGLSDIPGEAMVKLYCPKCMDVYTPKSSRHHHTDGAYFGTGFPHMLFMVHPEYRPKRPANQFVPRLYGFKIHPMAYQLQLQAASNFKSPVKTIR

N#Cc1cc(Nc2nc(NC3CC3)c3ncc(C#N)n3n2)c(Cl)c(N2CCN(C3CN(C(=O)CO)C3)CC2)c1 [Example 488, 2-[(2-chloro-5-cyano-3-{4-[1-(2-hydroxyacetyl)azetidin-3-yl]piperazin-1-yl}phenyl)amino]-4-(cyclopropylamino)imidazo[2,1-f][1,2,4]triazine-7-carbonitrile]
IC50: 0.6 nM

N#Cc1cc(Nc2nc(NC3CC3)c3ncc(C#N)n3n2)c(Cl)c(N2CCN(C3CN(C(=O)C4CNCCO4)C3)CC2)c1 (stereo not drawn) [Example 489, 2-[(2-chloro-5-cyano-3-{4-[1-(morpholine-2-carbonyl)azetidin-3-yl]piperazin-1-yl}phenyl)amino]-4-(cyclopropylamino)imidazo[2,1-f][1,2,4]triazine-7-carbonitrile]
IC50: 1.4 nM

CC(C)(O)CC(=O)N1CC(N2CCN(c3cc(C#N)cc(Nc4nc(NC5CC5)c5ncc(C#N)n5n4)c3Cl)CC2)C1 [Example 490, 2-[(2-chloro-5-cyano-3-{4-[1-(3-hydroxy-3-methylbutanoyl)azetidin-3-yl]piperazin-1-yl}phenyl)amino]-4-(cyclopropylamino)imidazo[2,1-f][1,2,4]triazine-7-carbonitrile]
IC50: 0.94 nM

N#Cc1cc(Nc2nc(NC3CC3)c3ncc(C#N)n3n2)c(Cl)c(N2CCN(C3CN(C(=O)C(F)F)C3)CC2)c1 [Example 491, 2-[(2-chloro-5-cyano-3-{4-[1-(2,2-difluoroacetyl)azetidin-3-yl]piperazin-1-yl}phenyl)amino]-4-(cyclopropylamino)imidazo[2,1-f][1,2,4]triazine-7-carbonitrile]
IC50: 1.33 nM

CC(=O)NCC(=O)N1CC(N2CCN(c3cc(C#N)cc(Nc4nc(NC5CC5)c5ncc(C#N)n5n4)c3Cl)CC2)C1 [Example 492, N-(2-{3-[4-(2-chloro-5-cyano-3-{[7-cyano-4-(cyclopropylamino)imidazo[2,1-f][1,2,4]triazin-2-yl]amino}phenyl)piperazin-1-yl]azetidin-1-yl}-2-oxoethyl)acetamide]
IC50: 0.64 nM

N#Cc1cc(Nc2nc(NC3CC3)c3ncc(C#N)n3n2)c(Cl)c(N2CCN(C3CN(C(=O)CN4CCOCC4)C3)CC2)c1 [Example 493, 2-{[2-chloro-5-cyano-3-(4-{1-[2-(morpholin-4-yl)acetyl]azetidin-3-yl}piperazin-1-yl)phenyl]amino}-4-(cyclopropylamino)imidazo[2,1-f][1,2,4]triazine-7-carbonitrile]
IC50: 2.03 nM

CC(C)(CO)C(=O)N1CC(N2CCN(c3cc(C#N)cc(Nc4nc(NC5CC5)c5ncc(C#N)n5n4)c3Cl)CC2)C1 [Example 494, 2-[(2-chloro-5-cyano-3-{4-[1-(3-hydroxy-2,2-dimethylpropanoyl)azetidin-3-yl]piperazin-1-yl}phenyl)amino]-4-(cyclopropylamino)imidazo[2,1-f][1,2,4]triazine-7-carbonitrile]
IC50: 1.99 nM

N#Cc1cc(Nc2nc(NC3CC3)c3ncc(C#N)n3n2)c(Cl)c(N2CCN(C3CN(C(=O)CCO)C3)CC2)c1 [Example 495, 2-[(2-chloro-5-cyano-3-{4-[1-(3-hydroxypropanoyl)azetidin-3-yl]piperazin-1-yl}phenyl)amino]-4-(cyclopropylamino)imidazo[2,1-f][1,2,4]triazine-7-carbonitrile]
IC50: 4.89 nM

N#Cc1cc(Nc2nc(NC3CC3)c3ncc(C#N)n3n2)c(Cl)c(N2CCN(C3CN(C(=O)CCn4ccnc4)C3)CC2)c1 [Example 496, 2-{[2-chloro-5-cyano-3-(4-{1-[3-(1H-imidazol-1-yl)propanoyl]azetidin-3-yl}piperazin-1-yl)phenyl]amino}-4-(cyclopropylamino)imidazo[2,1-f][1,2,4]triazine-7-carbonitrile]
IC50: 1.82 nM

COCC(=O)N1CC(N2CCN(c3cc(C#N)cc(Nc4nc(NC5CC5)c5ncc(C#N)n5n4)c3Cl)CC2)C1 [Example 497, 2-[(2-chloro-5-cyano-3-{4-[1-(2-methoxyacetyl)azetidin-3-yl]piperazin-1-yl}phenyl)amino]-4-(cyclopropylamino)imidazo[2,1-f][1,2,4]triazine-7-carbonitrile]
IC50: 0.82 nM

N#Cc1cc(Nc2nc(NC3CC3)c3ncc(C#N)n3n2)c(Cl)c(N2CCN(C3CN(C(=O)[C@@H]4C[C@@H](O)CN4)C3)CC2)c1 [Example 498, 2-{[2-chloro-5-cyano-3-(4-{1-[(2S,4R)-4-hydroxypyrrolidine-2-carbonyl]azetidin-3-yl}piperazin-1-yl)phenyl]amino}-4-(cyclopropylamino)imidazo[2,1-f][1,2,4]triazine-7-carbonitrile]
IC50: 5.48 nM

CC(C)(F)C(=O)N1CC(N2CCN(c3cc(C#N)cc(Nc4nc(NC5CC5)c5ncc(C#N)n5n4)c3Cl)CC2)C1 [Example 499, 2-[(2-chloro-5-cyano-3-{4-[1-(2-fluoro-2-methylpropanoyl)azetidin-3-yl]piperazin-1-yl}phenyl)amino]-4-(cyclopropylamino)imidazo[2,1-f][1,2,4]triazine-7-carbonitrile]
IC50: 3.93 nM

N#Cc1cc(Nc2nc(NC3CC3)c3ncc(C#N)n3n2)c(Cl)c(N2CCN(C3CN(C(=O)C4(N)CC4)C3)CC2)c1 [Example 500, 2-[(3-{4-[1-(1-aminocyclopropanecarbonyl)azetidin-3-yl]piperazin-1-yl}-2-chloro-5-cyanophenyl)amino]-4-(cyclopropylamino)imidazo[2,1-f][1,2,4]triazine-7-carbonitrile]
IC50: 3.92 nM

CC(C)(N)CC(=O)N1CC(N2CCN(c3cc(C#N)cc(Nc4nc(NC5CC5)c5ncc(C#N)n5n4)c3Cl)CC2)C1 [Example 501, 2-[(3-{4-[1-(3-amino-3-methylbutanoyl)azetidin-3-yl]piperazin-1-yl}-2-chloro-5-cyanophenyl)amino]-4-(cyclopropylamino)imidazo[2,1-f][1,2,4]triazine-7-carbonitrile]
IC50: 2.64 nM

CC(C)(C)[C@@H](N)C(=O)N1CC(N2CCN(c3cc(C#N)cc(Nc4nc(NC5CC5)c5ncc(C#N)n5n4)c3Cl)CC2)C1 [Example 502, 2-{[3-(4-{1-[(2R)-2-amino-3,3-dimethylbutanoyl]azetidin-3-yl}piperazin-1-yl)-2-chloro-5-cyanophenyl]amino}-4-(cyclopropylamino)imidazo[2,1-f][1,2,4]triazine-7-carbonitrile]
IC50: 3.27 nM

N#Cc1cc(Nc2nc(NC3CC3)c3ncc(C#N)n3n2)c(Cl)c(N2CCN(C3CN(C(=O)[C@@H]4C[C@H](F)CN4)C3)CC2)c1 [Example 503, 2-{[2-chloro-5-cyano-3-(4-{1-[(2S,4S)-4-fluoropyrrolidine-2-carbonyl]azetidin-3-yl}piperazin-1-yl)phenyl]amino}-4-(cyclopropylamino)imidazo[2,1-f][1,2,4]triazine-7-carbonitrile]
IC50: 3.67 nM

N#Cc1cc(Nc2nc(NC3CC3)c3ncc(C#N)n3n2)c(Cl)c(N2CCN(C3CN(S(=O)(=O)C4CC4)C3)CC2)c1 [Example 504, 2-[(2-chloro-5-cyano-3-{4-[1-(cyclopropanesulfonyl)azetidin-3-yl]piperazin-1-yl}phenyl)amino]-4-(cyclopropylamino)imidazo[2,1-f][1,2,4]triazine-7-carbonitrile]
IC50: 4.07 nM

CC(C)(C)[C@H](N)C(=O)N1CC(N2CCN(c3cc(C#N)cc(Nc4nc(NC5CC5)c5ncc(C#N)n5n4)c3Cl)CC2)C1 [Example 505, 2-{[3-(4-{1-[(2S)-2-amino-3,3-dimethylbutanoyl]azetidin-3-yl}piperazin-1-yl)-2-chloro-5-cyanophenyl]amino}-4-(cyclopropylamino)imidazo[2,1-f][1,2,4]triazine-7-carbonitrile]
IC50: 5.42 nM

N#Cc1cc(Nc2nc(NC3CC3)c3ncc(C#N)n3n2)c(Cl)c(N2CCN(C3CN(C(=O)C4CCC(=O)N4)C3)CC2)c1 (stereo not drawn) [Example 506, 2-[(2-chloro-5-cyano-3-{4-[1-(5-oxopyrrolidine-2-carbonyl)azetidin-3-yl]piperazin-1-yl}phenyl)amino]-4-(cyclopropylamino)imidazo[2,1-f][1,2,4]triazine-7-carbonitrile]
IC50: 4.33 nM

N#Cc1cc(Nc2nc(NC3CC3)c3ncc(C#N)n3n2)c(Cl)c(N2CCN(C3CN(S(=O)(=O)CC(F)(F)F)C3)CC2)c1 [Example 507, 2-[(2-chloro-5-cyano-3-{4-[1-(2,2,2-trifluoroethanesulfonyl)azetidin-3-yl]piperazin-1-yl}phenyl)amino]-4-(cyclopropylamino)imidazo[2,1-f][1,2,4]triazine-7-carbonitrile]
IC50: 16.9 nM

CCC(C)(O)CC(=O)N1CC(N2CCN(c3cc(C#N)cc(Nc4nc(NC5CC5)c5ncc(C#N)n5n4)c3Cl)CC2)C1 (stereo not drawn) [Example 508, 2-[(2-chloro-5-cyano-3-{4-[1-(3-hydroxy-3-methylpentanoyl)azetidin-3-yl]piperazin-1-yl}phenyl)amino]-4-(cyclopropylamino)imidazo[2,1-f][1,2,4]triazine-7-carbonitrile]
IC50: 4.73 nM

N#Cc1cc(Nc2nc(NC3CC3)c3ncc(C#N)n3n2)c(Cl)c(N2CCN(C3CN(C(=O)C4CCC(O)CC4)C3)CC2)c1 (stereo not drawn) [Example 509, 2-[(2-chloro-5-cyano-3-{4-[1-(4-hydroxycyclohexane-carbonyl)azetidin-3-yl]piperazin-1-yl}phenyl)amino]-4-(cyclopropylamino)imidazo[2,1-f][1,2,4]triazine-7-carbonitrile]
IC50: 5.11 nM

N#Cc1cc(Nc2nc(NC3CC3)c3ncc(C#N)n3n2)c(Cl)c(N2CCN(C3CN(C(=O)[C@H](O)C(F)(F)F)C3)CC2)c1 [Example 510, 2-{[2-chloro-5-cyano-3-(4-{1-[(2S)-3,3,3-trifluoro-2-hydroxypropanoyl]azetidin-3-yl}piperazin-1-yl)phenyl]amino}-4-(cyclopropylamino)imidazo[2,1-f][1,2,4]triazine-7-carbonitrile]
IC50: 4.24 nM

CCOCCC(=O)N1CC(N2CCN(c3cc(C#N)cc(Nc4nc(NC5CC5)c5ncc(C#N)n5n4)c3Cl)CC2)C1 [Example 511, 2-[(2-chloro-5-cyano-3-{4-[1-(3-ethoxypropanoyl)azetidin-3-yl]piperazin-1-yl}phenyl)amino]-4-(cyclopropylamino)imidazo[2,1-f][1,2,4]triazine-7-carbonitrile]
IC50: 4.62 nM
